Experimental data taken from patent US20220146526A1, “METHOD FOR EVALUATING SAMPLE, ANALYSIS METHOD, METHOD FOR DETECTING DEGRADED SAMPLE, MARKER FOR DETECTING DEGRADED BLOOD PLASMA SAMPLE, AND MARKER FOR DETECTING DEGRADED SERUM SAMPLE” (SHIMADZU CORPORATION, priority 2019, published 2022).
“Also recorded” adds a separate entry of the source. Values belong to the molecule of their own block, whether it stands above or below them.

How the values were obtained:
Format in all cases: physicochemical, human
[1] = LC/MS of blood plasma sample: time from blood collection to centrifugation (Table D); details: for Increase or decrease: detection intensity; for Increase or decrease / Rate of increase or decrease: blood collection to centrifugation; for Rate of increase or decrease: detection intensity relative to 1 at 15 minutes
Procedure: (§1) At room temperature, 5 mL of blood from a healthy subject was taken into a blood-collecting vessel containing EDTA, and the blood-collecting vessel was inverted for mixing, then cooled, and allowed to stand at 4° C. Here, in order to investigate how the detection intensity of molecules contained in the sample was affected in a case where the time to cooling was set to 5 minutes or more as compared to that in a case where the time to cooling was set to 1 minute or less, preparations were performed under both the former condition and the latter condition. After standing, the blood sample was subjected to centrifugation under a condition of 4° C., 3000 rpm, and 15 minutes. […] After centrifugation, the blood-collecting vessel was left to stand at room temperature for 30 minutes, and the blood plasma was isolated during this 30 minutes. The obtained blood plasma sample was frozen and stored. Here, in order to investigate how the detection intensity of molecules contained in the sample was affected in cases where freezing and thawing was performed 4 times, 6 times, and 10 times after freezing as compared to that in a case where freezing and thawing was performed 2 times after freezing, freezing and thawing was performed under the respective conditions of 2, 4, 6, and 10 times.
(§2) Frozen blood plasma samples and serum samples were subjected to GC/MS or LC/MS. In GC/MS, the blood plasma samples and serum samples were subjected to methoxymation and trimethylsilylation and then introduced to GC-MS.
(§3) Analysis column: Discovery HS F5-3 (inner diameter of 2.1 mm, length of 150 mm, film thickness of 3 μm) (Sigma-Aldrich)
(§4) Column temperature: 40° C.
(§5) (A) 0.1% formic acid (dissolved in water)
(§6) (B) 0.1% formic acid (dissolved in acetonitrile)
(§7) Flow velocity: 0.25 mL/min
(§8) Ionization method: electrospray
(§9) Temperature: • Desolvation Line (DL) temperature: 250° C. • Heat block temperature: 400° C. • Interface temperature: 300° C.
(§10) Gas flow rate: • Nebulizer gas flow rate: 3.0 L/min • Drying gas flow rate: 10.0 L/min • Heating gas flow rate: 10.0 L/min
(§11) Mode: multiple reaction monitoring (MRM)
The rate of increase or decrease in Table D is the value of detection intensity relative to 1 that is the detection intensity in a case where the time from blood collection to centrifugation is set to 15 minutes.

[2] = LC/MS of blood plasma sample: number of times of freezing and thawing (Table F); details: for Rate of increase or decrease: detection intensity relative to 1 at 2 times; for Increase or decrease: detection intensity
Procedure: as §1, §2, §3, §4, §5, §6, §7, §8, §9, §10, §11
The rate of increase or decrease in Table F is the value of detection intensity relative to 1 that is the detection intensity in a case where the number of times of freezing and thawing is set to 2 times.

[3] = LC/MS of serum sample: time from blood collection to centrifugation (Table J); details: for Rate of increase or decrease: detection intensity relative to 1 at 15 minutes; for Increase or decrease / Time when compound is affected: serum sample, LC/MS; for Increase or decrease: detection intensity vs 15 minutes from blood collection to centrifugation; for Time when compound is affected: time from blood collection to centrifugation, detection intensity changed by 30% or more vs 15 minutes
Procedure: After standing, the blood sample was subjected to centrifugation under a condition of room temperature, 3500 rpm, and 5 minutes. […] After centrifugation, the blood-collecting vessel was left to stand at room temperature, and the serum was isolated during this time. Here, in order to investigate how the detection intensity of molecules contained in the sample was affected in cases where the time during which the blood-collecting vessel was left at room temperature was set to 1 hour and 6 hours as compared to that in a case where the time was set to 30 minutes, preparations were performed under the respective conditions of 30 minutes, 1 hour, and 6 hours. The obtained serum sample was frozen and stored. Here, in order to investigate how the detection intensity of molecules contained in the sample was affected in cases where freezing and thawing was performed 4 times, 6 times, and 10 times after freezing as compared to that in a case where freezing and thawing was performed 2 times after freezing, freezing and thawing was performed under the respective conditions of 2, 4, 6, and 10 times.
as §2, §3, §4, §5, §6, §7, §8, §9, §10, §11
The rate of increase or decrease in Table J is the value of detection intensity relative to 1 that is the detection intensity in a case where the time from blood collection to centrifugation is set to 15 minutes.

[4] = LC/MS of serum sample: number of times of freezing and thawing (Table M); set-up: key to Rate of increase or decrease: detection intensity relative to 1 at 2 freeze-thaw cycles; details: for Number of times when compound is affected / Increase or decrease: serum sample, LC/MS; for Number of times when compound is affected: detection intensity changed by 30% or more vs 2 times of freezing and thawing; for Increase or decrease: detection intensity vs 2 times of freezing and thawing
Method in brief: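 Values are detection intensities relative to serum thawed twice, versus 4, 6 or 10 freeze-thaw cycles. Serum came from blood spun at room temperature, 3500 rpm for 5 minutes. Analysis: electrospray LC/MS in MRM mode, Discovery HS F5-3 column, 40° C, 0.1% formic acid in water and acetonitrile.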

[5] = GC/MS of blood plasma sample: time from blood collection to cooling of blood (Table B); set-up: key to Rate of increase or decrease / Rate of increase or decrease (first value, increase): detection intensity relative to 1 at cooling time ≤1 min; details: for Rate of increase or decrease: detection intensity relative to 1 at 1 minute or less, blood collection to cooling 5 minutes; for Increase or decrease: detection intensity, blood collection to cooling 5 minutes or more vs 1 minute or less
Procedure: as §1, §2
GC/MS was conducted using GCMS·TQ8040 (Shimadzu Corporation) that was a GC·MS equipped with AOC·20i (Shimadzu Corporation) as an autosampler.
Column: BPX5 (inner diameter of 0.25 mm, length of 30 m, and film thickness of 0.25 μm) (SGE)
Column temperature: maintained at 60° C. for 2 minutes, then raised at 15° C./min, and maintained at 330° C. for 3 minutes.
Inlet temperature: 250° C.
Carrier gas control mode: constant linear velocity of 39.0 cm/sec
Sample introduction method: split (split ratio of 30:1) Injection volume: 1 μL
Ionization method: electron ionization
Ionization current: 60 μA
Interface temperature: 280° C.
Ion source temperature: 200° C.
as §11
Table B presents compounds of which the detection intensity increased or decreased by 30% or more in a case where the time from blood collection to cooling of blood, when a blood plasma sample was analyzed by GC/MS, was set to 5 minutes or more as compared to that in a case where the time was set to 1 minute or less. The rate of increase or decrease in Table B is the value of detection intensity relative to 1 that is the detection intensity in a case where the time from blood collection to cooling is set to 1 minute or less.

[6] = GC/MS of serum sample: time from blood collection to centrifugation (Table G); details: blood collection to centrifugation; for Rate of increase or decrease: detection intensity relative to 1 at 15 minutes; for Increase or decrease: detection intensity
Method in brief: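 Values express detection intensity as a ratio to the sample centrifuged 15 minutes after blood collection (taken as 1). Serum was derivatized by methoxymation and trimethylsilylation, then analysed by electron-ionization GC/MS using multiple reaction monitoring on a BPX5 column ramped from 60 to 330° C.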

[7] = GC/MS of serum sample: time from centrifugation to isolation (Table H); set-up: key to Rate of increase or decrease / Rate of increase or decrease (first value, increase): detection intensity relative to 1 at 30 min centrifugation-to-isolation
Method in brief: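 Values are GC/MS (EI, MRM) detection intensities of methoxymated/trimethylsilylated serum, normalised to 1 for the 30-min sample. Serum was isolated 30 min, 1 h or 6 h after room-temperature centrifugation (3500 rpm, 5 min) of blood.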

[8] = GC/MS of serum sample: number of times of freezing and thawing (Table I); set-up: key to Rate of increase or decrease / Rate of increase or decrease (first value, increase): detection intensity relative to 2 freeze-thaw cycles = 1; details: for Rate of increase or decrease: detection intensity relative to 1 at 2 times
Method in brief: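 Detection intensities are ratios to the value after two freeze–thaw cycles, which is set as 1, compared against 4, 6 and 10 cycles. Analysis used methoxymation and trimethylsilylation derivatization, then GC/MS with EI ionization and multiple reaction monitoring on a BPX5 column. Serum came from blood held at room temperature and spun at 3500 rpm for 5 min.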

[9] = freezing and thawing 10 times vs 2 times
[10] = after 12 hours from blood collection to centrifugation
[11] = detection intensity, serum, GC/MS, freezing and thawing 4 times vs 2 times
[12] = freezing and thawing 4 times vs 2 times
[13] = after 6 hours from blood collection to centrifugation
[14] = 6 times of freezing and thawing, detection intensity relative to 1 at 2 times

Increase or decrease ([1]; after 12 hours vs 15 minutes): Different from individual
Rate of increase or decrease (second value, decrease) ([1]; different from individual to individual, individuals with decrease, relative to 1 at 15 minutes, collection to centrifugation, after 12 hours): 0.65
Rate of increase or decrease (first value, increase) ([1]; different from individual to individual, individuals with increase, relative to 1 at 15 minutes, collection to centrifugation, after 12 hours): 1.31
Rate of increase or decrease ([2]; freezing and thawing 10 times): 1.44
Increase or decrease [2, 9]: Increase
Rate of increase or decrease [3, 10]: 1.34
Increase or decrease [3]: Increase
Time when compound is affected [3]: After 12 hours
Rate of increase or decrease ([4]; 6 times of freezing and thawing, relative to 1 at 2 times, different from individual to individual, first value (increase)): 1.33
Rate of increase or decrease ([4]; 6 times of freezing and thawing, relative to 1 at 2 times, different from individual to individual, second value (decrease)): 0.66
Number of times when compound is affected [4]: 6 times
Increase or decrease [4]: Different from individual
Compound: CC[C@H](C)[C@H](N)C(=O)O [Isoleucine]

Rate of increase or decrease ([1]; after 12 hours): 0.69
Increase or decrease ([1]; after 12 hours vs 15 minutes): Decrease
Rate of increase or decrease ([2]; freezing and thawing 10 times): 1.35
Increase or decrease [2, 9]: Increase
Rate of increase or decrease [3, 10]: 1.35
Increase or decrease [3]: Increase
Time when compound is affected [3]: After 12 hours
Rate of increase or decrease [4, 14]: 0.66
Number of times when compound is affected [4]: 6 times
Increase or decrease [4]: Decrease
Compound: CC(C)C[C@H](N)C(=O)O [Leucine]

Rate of increase or decrease [5]: 0.61
Increase or decrease [5]: Decrease
Rate of increase or decrease ([6]; after 4 hours): 1.40
Increase or decrease ([6]; after 4 hours vs 15 minutes): Increase
Rate of increase or decrease ([8]; 10 times of freezing and thawing): 0.66
Number of times when compound is affected ([8]; serum sample, GC/MS, detection intensity changed by 30% or more vs 2 times of freezing and thawing): 10 times
Increase or decrease ([8]; serum sample, GC/MS, detection intensity vs 2 times of freezing and thawing): Decrease
Compound: O=C(O)CO [Glycolic acid]

The next lines start with the molecule.

Compound: O=C1CCNC(=O)N1 [Dihydrouracil]
Rate of increase or decrease [5]: 1.42
Increase or decrease [5]: Increase
Rate of increase or decrease ([6]; after 4 hours): 3.17
Rate of increase or decrease ([6]; after 12 hours): 1.30
Increase or decrease ([6]; after 4 hours vs 15 minutes): Increase
Increase or decrease ([6]; after 12 hours vs 15 minutes): Decrease
Rate of increase or decrease ([7]; detection intensity relative to 1 at 30 minutes, after 1 hour): 0.30
Increase or decrease ([7]; detection intensity, after 1 hour vs 30 minutes): Decrease
Increase or decrease [8, 11]: Increase; also recorded: Decrease

Compound: N=C(N)NCCC[C@H](N)C(=O)O [Arginine]
Rate of increase or decrease ([1]; after 6 hours): 0.69
Increase or decrease ([1]; after 6 hours vs 15 minutes): Decrease
Rate of increase or decrease ([2]; freezing and thawing 4 times): 1.34
Increase or decrease [2, 12]: Increase
Rate of increase or decrease ([8]; serum, GC/MS, freezing and thawing 10 times): 1.51
Increase or decrease ([8]; detection intensity, serum, GC/MS, freezing and thawing 10 times vs 2 times): Increase
Rate of increase or decrease [3, 13]: 0.54
Increase or decrease [3]: Decrease
Time when compound is affected [3]: After 6 hours
Rate of increase or decrease [4, 14]: 0.64
Number of times when compound is affected [4]: 6 times
Increase or decrease [4]: Decrease

Compound: O=C(O)CCC(=O)O [Succinic acid]
Rate of increase or decrease ([1]; after 4 hours): 0.50
Rate of increase or decrease ([1]; after 6 hours): 0.61
Increase or decrease ([1]; after 4 hours vs 15 minutes): Decrease
Increase or decrease ([1]; after 6 hours vs 15 minutes): Decrease
Rate of increase or decrease ([2]; freezing and thawing 4 times): 1.46
Increase or decrease [2, 12]: Increase
Rate of increase or decrease [3, 13]: 1.57
Increase or decrease [3]: Increase
Time when compound is affected [3]: After 6 hours
Rate of increase or decrease ([4]; 4 times of freezing and thawing, detection intensity relative to 1 at 2 times): 1.47
Number of times when compound is affected [4]: 4 times
Increase or decrease [4]: Increase

Compound: O=CC(=O)O [Glyoxylic acid]
Rate of increase or decrease [5]: 1.37
Increase or decrease [5]: Increase
Rate of increase or decrease ([8]; serum, GC/MS, freezing and thawing 4 times): 0.63
Increase or decrease [8, 11]: Decrease
